Reference: patent US9186093B2, “Compositions and methods for screening cardioactive drugs” (THE REGENTS OF THE UNIVERSITY OF CALIFORNIA, priority 2008, dated 2015)

Columns and labels:
patients = details: some patients; thought to be due to effects on HERG and KCNQ channels; cited from earlier work
fly heart = test: Drug application to the fly heart, induction of arrhythmias; format: in vivo, Drosophila; details: HERG and KCNQ channels present in fly heart
Source text: According to another embodiment of the invention, methods are provided for testing a compound for cardioactivity comprising: (a) providing a composition comprising an excised, denervated Drosophila heart that retains myogenic activity, and a physiologically acceptable hemolymph fluid in contact with said Drosophila heart; (b) contacting the composition with the compound; and (c) assessing the effect of the compound on the myogenic activity of the semi-intact Drosophila heart. In one such embodiment the method comprises assessing the effect of the compound on myogenic activity of the semi-intact Drosophila heart by producing images of the semi-intact Drosophila heart and analyzing the images. In another such embodiment, the method comprises determining a member of the group consisting of heart period, heart rate, diastolic interval, systolic interval, standard deviation of heart period, standard deviation of heart rate, standard deviation of diastolic interval, standard deviation of systolic interval, percent fractional shortening of heart contraction, arrhythmia index, velocity of heart muscle contraction, and directionality of heart muscle contraction.
These are thought to be due to drug effects on both HERG and KCNQ channels. […] Thus, this system can be used to screen for possible drug side effects.

Row | Structure (SMILES) | induction of arrhythmias in patients (patients) | induction of arrhythmias in the fly (fly heart)
1 | CCCCCCCN(CC)CCCC(O)c1ccc(NS(C)(=O)=O)cc1 (stereo not shown) [ibutilide] | induce arrhythmias in some patients | induce arrhythmias in the fly
2 | CCCCCCC[N+](CC)(CC)CCCCc1ccc(Cl)cc1 [clofilium] | induce arrhythmias in some patients | induce arrhythmias in the fly
